Source: patent US9617214B2, “Compounds for cognitive enhancement and methods of use thereof” (The Translational Genomics Research Institute, priority 2013, dated 2017)
Entries after “also recorded” stand apart in the source; their conditions may differ. Read-outs that look alike come from different tables or passages of the source.

Columns and labels:
ROCK1 [1] = target: T1, ROCK1 (Homo sapiens, UniProt Q13464); test: ROCK1 enzyme activity at 10 μM; format: biochemical; conditions: 10 μM compound
Procedure: (§1) Enzyme activity of ROCK1 and ROCK2 were studied at 10 μM to compare the inhibition activity of ROCK inhibitors. Table 2 summarizes the extent of inhibition of the compounds of the inventions.

H4-tau cells [2] = test: p-tau protein to total tau protein ratio in H4-tau cells at IC10 dosage, 96-hour time course, ELISA; format: cell-based, human; conditions: 96-hour time course, compared to vehicle (DMSO), two-sided t-test
Procedure: Thirteen different ROCK inhibitors were tested for their effect on the ratio of p-tau protein to total tau protein. […] Alamar Blue was used after cells were treated with the respective compounds at various dosages to determine the IC10 value. The compounds were applied to H4-tau cells over a 96-hour time course with 8 time points (at hours 12, 24, 36, 48, 60, 72, 84, and 96). At each time point, total cell protein was collected and p-tau protein and total tau protein was assessed using an enzyme-linked immunosorbent assay. The p-tau to total tau protein ratio at each time point for each drug was compared to the corresponding time point for cells treated with vehicle (DMSO) used to solubilize the respective compound.
Two-sided t-tests were used to determine significant changes in the p-tau protein to total tau protein ratio for each drug across the entire time course at each tested time point. Cells treated by drug were compared to cells treated to vehicle.

ROCK2 [3] = target: T2, ROCK2 (Homo sapiens, UniProt O75116); test: ROCK2 enzyme activity at 10 μM; format: biochemical; conditions: 10 μM compound
Procedure: as §1

H4-tau cells [4] = test: Validation time course in H4-tau cells at IC50 (cell survival) dosage: p-tau and total tau protein by ELISA; format: cell-based, human; conditions: IC50 dosage for cell survival, over 96 hours; for concentration of total tau protein: FIG. 2; for concentration of p-tau protein: FIG. 3
Procedure: The time course was repeated using 4 biological replicates over 96 hours and 10 time points (at hours 0, 6, 12, 24, 36, 48, 60, 72, 84, and 96). Total cell protein was collected at each time point and ELISAs were used to measure p-tau protein and total tau protein.

ROCK1 [5] = target: T1, ROCK1; test: IC50 value for ROCK1 activity; format: biochemical; conditions: ATP at Km (10 μM)
ROCK2 [6] = target: T2, ROCK2; test: IC50 value for ROCK2 activity; format: biochemical; conditions: ATP at Km (10 μM)
Aβ42 = conditions: mouse model of AD; cited from earlier work
rats [7] = conditions: cited from earlier work
rats [8] = conditions: aged rats; cited from earlier work
[9] = Test 1, read-out: % enzyme activity at 10 μM ROCK1 Test 1
[10] = Test 2, read-out: % enzyme activity at 10 μM ROCK1 Test 2
[11] = Test 1, read-out: % enzyme activity at 10 μM ROCK2 Test 1
[12] = Test 2, read-out: % enzyme activity at 10 μM ROCK2 Test 2

T2 sequence (O75116 whole entry): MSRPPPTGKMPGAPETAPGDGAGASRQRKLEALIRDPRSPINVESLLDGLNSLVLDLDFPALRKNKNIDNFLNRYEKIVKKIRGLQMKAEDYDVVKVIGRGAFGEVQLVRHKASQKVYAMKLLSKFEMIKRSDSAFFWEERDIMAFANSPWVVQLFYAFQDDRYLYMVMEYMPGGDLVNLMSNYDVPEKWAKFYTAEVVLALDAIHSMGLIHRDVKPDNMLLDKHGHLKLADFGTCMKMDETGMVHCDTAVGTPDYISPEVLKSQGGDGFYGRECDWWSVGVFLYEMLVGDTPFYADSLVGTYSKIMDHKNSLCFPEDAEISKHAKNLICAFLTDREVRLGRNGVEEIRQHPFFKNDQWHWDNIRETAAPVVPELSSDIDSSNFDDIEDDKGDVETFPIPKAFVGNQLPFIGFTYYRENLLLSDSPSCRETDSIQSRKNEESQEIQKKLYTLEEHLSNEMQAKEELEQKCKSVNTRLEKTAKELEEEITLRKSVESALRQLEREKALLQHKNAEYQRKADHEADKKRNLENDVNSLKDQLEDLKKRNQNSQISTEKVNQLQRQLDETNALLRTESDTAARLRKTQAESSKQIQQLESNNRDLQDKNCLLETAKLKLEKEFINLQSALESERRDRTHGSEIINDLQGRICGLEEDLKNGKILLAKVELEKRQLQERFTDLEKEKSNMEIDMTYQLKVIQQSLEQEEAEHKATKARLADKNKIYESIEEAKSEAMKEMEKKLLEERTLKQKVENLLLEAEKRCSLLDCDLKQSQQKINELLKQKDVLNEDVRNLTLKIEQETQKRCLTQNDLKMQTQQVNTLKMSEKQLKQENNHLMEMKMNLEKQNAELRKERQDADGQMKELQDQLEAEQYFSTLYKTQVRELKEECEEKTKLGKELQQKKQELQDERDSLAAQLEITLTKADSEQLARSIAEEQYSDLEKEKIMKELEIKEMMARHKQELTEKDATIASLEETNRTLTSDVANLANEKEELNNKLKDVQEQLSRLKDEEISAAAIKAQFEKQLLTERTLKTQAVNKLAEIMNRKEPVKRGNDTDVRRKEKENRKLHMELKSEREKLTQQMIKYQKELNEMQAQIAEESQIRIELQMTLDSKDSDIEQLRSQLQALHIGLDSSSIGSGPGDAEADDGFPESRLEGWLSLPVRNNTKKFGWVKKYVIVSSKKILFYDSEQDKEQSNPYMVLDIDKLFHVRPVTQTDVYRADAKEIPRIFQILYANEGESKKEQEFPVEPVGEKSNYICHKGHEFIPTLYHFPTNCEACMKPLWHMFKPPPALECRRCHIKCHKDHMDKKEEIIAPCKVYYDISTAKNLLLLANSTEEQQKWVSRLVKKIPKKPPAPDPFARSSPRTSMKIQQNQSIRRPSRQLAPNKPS
T1 sequence (Q13464 whole entry): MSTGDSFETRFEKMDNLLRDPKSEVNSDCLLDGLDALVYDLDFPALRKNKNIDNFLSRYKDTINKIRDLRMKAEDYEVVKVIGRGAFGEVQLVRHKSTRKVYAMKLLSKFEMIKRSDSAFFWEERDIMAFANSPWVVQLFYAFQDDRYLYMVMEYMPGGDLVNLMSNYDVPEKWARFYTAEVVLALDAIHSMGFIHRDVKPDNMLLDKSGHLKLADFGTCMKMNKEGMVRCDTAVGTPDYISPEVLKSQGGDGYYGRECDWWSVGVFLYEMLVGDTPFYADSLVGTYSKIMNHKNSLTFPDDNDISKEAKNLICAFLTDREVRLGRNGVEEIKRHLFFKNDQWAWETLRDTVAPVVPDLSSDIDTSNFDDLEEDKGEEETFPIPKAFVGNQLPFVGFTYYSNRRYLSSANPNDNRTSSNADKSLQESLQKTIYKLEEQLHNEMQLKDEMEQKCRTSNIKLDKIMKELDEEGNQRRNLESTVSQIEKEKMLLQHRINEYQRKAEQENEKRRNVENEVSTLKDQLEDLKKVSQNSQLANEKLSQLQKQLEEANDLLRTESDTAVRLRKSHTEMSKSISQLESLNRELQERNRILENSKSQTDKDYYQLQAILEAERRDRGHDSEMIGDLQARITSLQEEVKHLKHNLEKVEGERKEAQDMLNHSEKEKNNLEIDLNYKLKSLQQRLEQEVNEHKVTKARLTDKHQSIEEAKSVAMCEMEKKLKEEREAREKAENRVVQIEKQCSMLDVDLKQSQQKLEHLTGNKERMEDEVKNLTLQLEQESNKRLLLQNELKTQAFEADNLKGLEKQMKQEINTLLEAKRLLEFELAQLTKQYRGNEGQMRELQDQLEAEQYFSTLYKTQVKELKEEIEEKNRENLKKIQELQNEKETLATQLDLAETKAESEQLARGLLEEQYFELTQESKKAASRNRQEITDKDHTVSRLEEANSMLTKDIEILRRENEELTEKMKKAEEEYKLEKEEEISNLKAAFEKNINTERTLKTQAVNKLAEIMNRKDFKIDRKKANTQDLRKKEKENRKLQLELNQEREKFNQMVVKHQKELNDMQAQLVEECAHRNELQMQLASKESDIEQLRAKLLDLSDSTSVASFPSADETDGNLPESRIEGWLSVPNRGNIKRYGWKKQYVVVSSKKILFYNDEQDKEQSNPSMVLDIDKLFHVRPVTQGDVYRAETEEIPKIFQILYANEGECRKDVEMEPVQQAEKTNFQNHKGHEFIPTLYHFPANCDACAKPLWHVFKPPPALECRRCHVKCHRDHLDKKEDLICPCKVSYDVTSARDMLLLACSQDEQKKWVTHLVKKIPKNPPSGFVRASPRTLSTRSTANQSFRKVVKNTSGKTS

| Structure (SMILES) | remaining activity at 10 µM (ROCK1 [1]; [9]) [%] | remaining activity at 10 µM (ROCK1 [1]; [10]) [%] | remaining activity at 10 µM (ROCK2 [3]; [11]) [%] | remaining activity at 10 µM (ROCK2 [3]; [12]) [%] | p-tau protein to total tau protein ratio (H4-tau cells [2]) | other results |
| --- | --- | --- | --- | --- | --- | --- |
| CC(Cc1ccc(F)cc1)NC(=O)c1ccc(-c2ccncc2)cc1 (stereo not shown) [Compound T350] |  |  |  |  | significant decrease |  |
| CC(N)C1CCC(C(=O)Nc2ccncc2)CC1 (stereo not shown) [Compound Y27632, 4-(1-aminoethyl)-N-pyridin-4-yl-cyclohexane-1-carboxamide] |  |  |  |  |  | brain levels of Aβ42 (Aβ42): preferentially lowered; memory and learning (rats [7]; rats with ischemia): increased; hyperphosphorylation of the tau protein (rats [7]; rats, hyperphosphorylation due to ischemia): decreased; memory and learning (rats [7]; sham rats, no hyperphosphorylation of the tau protein): decreased |
| O=S(=O)(c1cccc2cnccc12)N1CCCNCC1 [Fasudil, 5-(1,4-diazepan-1-ylsulfonyl)isoquinoline, reference compound] |  |  |  |  |  | concentration of total tau protein (H4-tau cells [4]): lesser concentrations; concentration of p-tau protein (H4-tau cells [4]): lesser concentrations; learning and memory (rats [8]): increased |

Second part, led by results:

| remaining activity at 10 µM (ROCK1 [1]; [9]) [%] | remaining activity at 10 µM (ROCK1 [1]; [10]) [%] | remaining activity at 10 µM (ROCK2 [3]; [11]) [%] | remaining activity at 10 µM (ROCK2 [3]; [12]) [%] | Structure (SMILES) | p-tau protein to total tau protein ratio (H4-tau cells [2]) | other results |
| --- | --- | --- | --- | --- | --- | --- |
| 0.97 | 2.38 |  |  | O=C(Nc1ccc(-c2cn[nH]c2)cc1)C1COc2ccccc2C1 (stereo not shown) [Compound T299] |  |  |
| 3.26 | 2.65 | 0.78 | 0.55 | O=C(Nc1cccc(-c2ccncc2)c1)C1COc2ccccc2C1 (stereo not shown) [Compound T303] | significant decrease |  |
| 6.75 | 6.94 | 3.85 | 3.62 | O=S(=O)(c1cccc2cnccc12)N1CCCN(Cc2ccc(F)cc2)CC1 [Compound T306] |  |  |
| 1.22 | 1.17 | 0.08 | 0.56 | O=C(NCCc1cccc(Cl)c1)c1ccc(-c2ccncc2)cc1 [Compound T343] | significant decrease | p-tau protein to total tau protein ratio (H4-tau cells [4]; 4 biological replicates, FIG. 4): significant decrease; also recorded: decreased ratio; concentration of total tau protein (H4-tau cells [4]): lesser concentrations; concentration of p-tau protein (H4-tau cells [4]): lesser concentrations; IC50 (ROCK1 [5]; Test 1, read-out: IC50 (μM) ROCK1 Test 1): 0.0318 µM; IC50 (ROCK1 [5]; Test 2, read-out: IC50 (μM) ROCK1 Test 2): 0.0227 µM; IC50 (ROCK2 [6]; Test 1, read-out: IC50 (μM) ROCK2 Test 1): 0.0167 µM; IC50 (ROCK2 [6]; Test 2, read-out: IC50 (μM) ROCK2 Test 2): 0.0102 µM |
